Measured values from ChEMBL document CHEMBL3886983, “Pyridinyl and pyrimidinyl sulfoxide and sulfone derivatives” (2016).
pIC50: −log10 of the molar value.

Biological target: Nicotinamide phosphoribosyltransferase (Homo sapiens, UniProt P43490)
Assay: Biochemical Inhibition Assay: The NAMPT Enzymatic Reaction. The NAMPT enzymatic reactions were carried out in Buffer A (50 mM Hepes pH 7.5, 50 mM NaCl, 5 mM MgCl2, and 1 mM THP) in 96-well V-bottom plates. The compound titrations were performed in a separate dilution plate by serially diluting the compounds in DMSO to make a 100x stock. Buffer A (89 uL) containing 33 nM of NAMPT protein was added to 1 uL of 100x compound plate containing controls (e.g. DMSO or blank). The compound and enzyme mixture was incubated for 15 min at rt, then 10 uL of 10x substrate and co-factors in Buffer A were added to the test well to make a final concentration of 1 uM NAM, […] 5-Phospho-D-ribose 1-diphosphate (PRPP), and 2.5 mM Adenosine 5'-triphosphate (ATP). The reaction was allowed to proceed for 30 min at rt, then was quenched with the addition of 11 uL of a solution of formic acid and L-Cystathionine to make a final concentration of 1% formic acid and 10 uM L-Cystathionine. Background and signal strength was determined by addition (or non-addition) of a serial dilution of NMN to a pre-quenched enzyme and cofactor mix.

Nicotinamide phosphoribosyltransferase, sequence (P43490 whole entry): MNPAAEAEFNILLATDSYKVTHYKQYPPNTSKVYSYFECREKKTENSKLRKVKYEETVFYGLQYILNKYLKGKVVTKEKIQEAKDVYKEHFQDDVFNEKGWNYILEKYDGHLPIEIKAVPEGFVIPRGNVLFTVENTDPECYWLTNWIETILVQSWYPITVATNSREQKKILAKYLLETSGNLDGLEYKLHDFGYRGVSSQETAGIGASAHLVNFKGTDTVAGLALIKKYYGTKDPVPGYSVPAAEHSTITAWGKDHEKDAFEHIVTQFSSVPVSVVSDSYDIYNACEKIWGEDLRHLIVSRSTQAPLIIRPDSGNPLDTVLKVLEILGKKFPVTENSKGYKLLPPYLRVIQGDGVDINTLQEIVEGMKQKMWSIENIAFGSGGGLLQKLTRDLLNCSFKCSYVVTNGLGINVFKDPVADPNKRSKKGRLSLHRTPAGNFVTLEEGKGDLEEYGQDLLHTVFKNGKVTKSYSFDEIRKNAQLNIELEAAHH

CN1CCN(c2ccc(S(=O)(=O)c3ccc(CNC(=O)c4cc5ccncc5o4)nc3)cn2)CC1
pIC50: 9.04
